Source: patent publication US9139581B2 (PORTOLA PHARMACEUTICALS, INC., priority 2008, dated 2015)

How the values were obtained:
[1] = system: SUDHL-4 and SUDHL-6 cells; conditions: Chen, Monti et al. 2008; cited from earlier work
[2] = system: Toledo and Karpas-422 cell lines; conditions: Chen, Monti et al. 2008; cited from earlier work
[3] = system: SUDHL-6 and Toledo cells; test: Caspase 3 apoptosis assay; assay type: cell-based, human; conditions: 1 μM, 72 h treatment
Method: Induction of apoptosis in non-Hodgkin's lymphoma B cell lines SUDHL-4, SUDHL-6, and Toledo was assessed by measuring the apoptotis marker Caspase 3. Cells were incubated with 1, 3, or 10 μM compound for 24, 48, and 72 hours. At the conclusion of each time point, cells were processed for flow cytometry analysis using the Monoclonal Rabbit Anti-Active Caspase-3 Antibody Kit and related protocols (BD Pharmingen). Data from two independent experiments are presented in Tables 5A and 5B, representing the percent of total cells undergoing apoptosis following incubation with compounds under the indicated conditions.
Induction of apoptosis was measured using the PE-conjugated monoclonal active caspase-3 antibody apoptosis kit (Becton Dickenson) following the supplied protocol. Cells were suspended in growth media (0.5×10^6 cells/ml) and treated with the indicated concentrations of each Syk inhibitor or vehicle control for 24, 48, or 72 hours prior to FACS analysis. The MTT (3-(4,5-Dimethylthiazol-2-yl)-2,5-diphenyltetrazolium bromide, a tetrazole) assay […] was used as a measure of cell viability and growth, following protocols supplied by the manufacturer. Cells were treated with the indicated concentrations of each Syk inhibitor or vehicle control for 72 hours.
Selective inhibition of Syk was sufficient to induce apoptosis in “BCR-type” NHL cell lines.

[4] = target: T1, JAK2 (Homo sapiens, UniProt O60674); test: Millipore Upstate KinaseProfiler screening, JAK2 catalytic activity; assay type: biochemical; conditions: Table 5; read-out: Inhibition (IC50%) of catalytic activity of JAK 2
T1 construct: purchased Millipore Upstate KinaseProfiler
T1 sequence (O60674 whole entry): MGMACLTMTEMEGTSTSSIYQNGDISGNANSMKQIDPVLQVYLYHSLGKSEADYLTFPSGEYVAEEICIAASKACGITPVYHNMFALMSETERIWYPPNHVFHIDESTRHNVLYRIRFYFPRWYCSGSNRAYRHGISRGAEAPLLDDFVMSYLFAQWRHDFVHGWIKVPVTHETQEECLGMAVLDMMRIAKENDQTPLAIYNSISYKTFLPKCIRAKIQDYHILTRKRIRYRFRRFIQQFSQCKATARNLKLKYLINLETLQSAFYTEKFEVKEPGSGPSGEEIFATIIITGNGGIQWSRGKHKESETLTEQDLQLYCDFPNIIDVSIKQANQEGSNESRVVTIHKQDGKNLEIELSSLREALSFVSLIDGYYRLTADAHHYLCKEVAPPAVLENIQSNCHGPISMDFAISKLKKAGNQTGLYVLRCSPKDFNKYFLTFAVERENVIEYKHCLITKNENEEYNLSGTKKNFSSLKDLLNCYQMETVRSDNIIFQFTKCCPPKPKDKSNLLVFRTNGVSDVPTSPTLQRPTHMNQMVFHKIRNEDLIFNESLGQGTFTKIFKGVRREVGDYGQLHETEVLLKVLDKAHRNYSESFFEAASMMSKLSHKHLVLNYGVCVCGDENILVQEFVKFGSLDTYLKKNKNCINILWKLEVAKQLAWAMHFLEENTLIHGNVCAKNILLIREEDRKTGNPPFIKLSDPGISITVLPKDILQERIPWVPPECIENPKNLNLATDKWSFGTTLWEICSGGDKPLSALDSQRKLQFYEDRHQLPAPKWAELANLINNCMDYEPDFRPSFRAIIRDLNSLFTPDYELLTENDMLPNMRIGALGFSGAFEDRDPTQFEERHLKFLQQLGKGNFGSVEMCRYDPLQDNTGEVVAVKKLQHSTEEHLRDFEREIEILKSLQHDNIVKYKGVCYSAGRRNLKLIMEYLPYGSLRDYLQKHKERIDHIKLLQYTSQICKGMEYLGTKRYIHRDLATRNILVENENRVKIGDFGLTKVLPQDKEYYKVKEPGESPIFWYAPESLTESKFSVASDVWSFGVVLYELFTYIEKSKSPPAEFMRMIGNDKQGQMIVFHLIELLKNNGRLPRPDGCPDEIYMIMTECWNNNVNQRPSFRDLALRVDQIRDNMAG

[5] = target: T2, JAK1 (Homo sapiens, UniProt P23458); test: Millipore Upstate KinaseProfiler screening, JAK1 catalytic activity; assay type: biochemical; conditions: Table 5; read-out: Inhibition (IC50%) of catalytic activity of JAK 1
T2 construct: purchased Millipore Upstate KinaseProfiler
T2 sequence (P23458 whole entry): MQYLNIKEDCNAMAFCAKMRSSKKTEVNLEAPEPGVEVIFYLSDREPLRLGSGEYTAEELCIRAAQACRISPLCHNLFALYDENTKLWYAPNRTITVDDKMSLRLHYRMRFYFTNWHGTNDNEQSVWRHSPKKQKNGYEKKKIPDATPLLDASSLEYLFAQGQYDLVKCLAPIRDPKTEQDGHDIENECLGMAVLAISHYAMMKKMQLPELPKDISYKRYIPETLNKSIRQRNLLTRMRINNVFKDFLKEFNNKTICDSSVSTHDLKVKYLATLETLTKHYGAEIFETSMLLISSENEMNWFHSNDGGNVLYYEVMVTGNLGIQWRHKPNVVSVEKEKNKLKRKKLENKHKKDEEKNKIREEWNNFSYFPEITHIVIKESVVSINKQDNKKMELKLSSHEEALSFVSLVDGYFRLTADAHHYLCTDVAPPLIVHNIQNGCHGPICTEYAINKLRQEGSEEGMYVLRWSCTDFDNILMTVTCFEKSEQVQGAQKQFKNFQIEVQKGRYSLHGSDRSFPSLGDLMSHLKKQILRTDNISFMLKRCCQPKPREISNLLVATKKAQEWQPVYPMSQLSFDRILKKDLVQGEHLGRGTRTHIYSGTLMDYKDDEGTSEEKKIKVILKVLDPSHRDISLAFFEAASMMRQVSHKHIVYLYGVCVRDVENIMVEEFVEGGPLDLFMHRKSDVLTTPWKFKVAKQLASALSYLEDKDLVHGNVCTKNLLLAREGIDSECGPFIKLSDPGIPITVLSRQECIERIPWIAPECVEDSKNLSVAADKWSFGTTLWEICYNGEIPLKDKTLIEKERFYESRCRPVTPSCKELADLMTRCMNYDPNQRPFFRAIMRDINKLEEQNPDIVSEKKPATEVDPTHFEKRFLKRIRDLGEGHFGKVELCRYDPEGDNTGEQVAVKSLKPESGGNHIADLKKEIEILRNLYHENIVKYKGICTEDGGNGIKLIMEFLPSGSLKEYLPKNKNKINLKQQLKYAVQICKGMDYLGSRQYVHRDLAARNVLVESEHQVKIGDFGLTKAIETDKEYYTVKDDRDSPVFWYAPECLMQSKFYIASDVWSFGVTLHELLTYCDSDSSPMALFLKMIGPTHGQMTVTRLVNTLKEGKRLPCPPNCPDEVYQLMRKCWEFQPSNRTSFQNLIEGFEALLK

[6] = target: T3, Purified human JAK3 (Homo sapiens, UniProt P52333); test: Millipore Upstate KinaseProfiler screening, JAK3 catalytic activity; assay type: biochemical; conditions: Table 5; read-out: Inhibition (IC50%) of catalytic activity of JAK 3
T3 construct: purchased Millipore Upstate KinaseProfiler; host or cells: insect cells
T3 sequence (P52333 781-1124 limits assumed): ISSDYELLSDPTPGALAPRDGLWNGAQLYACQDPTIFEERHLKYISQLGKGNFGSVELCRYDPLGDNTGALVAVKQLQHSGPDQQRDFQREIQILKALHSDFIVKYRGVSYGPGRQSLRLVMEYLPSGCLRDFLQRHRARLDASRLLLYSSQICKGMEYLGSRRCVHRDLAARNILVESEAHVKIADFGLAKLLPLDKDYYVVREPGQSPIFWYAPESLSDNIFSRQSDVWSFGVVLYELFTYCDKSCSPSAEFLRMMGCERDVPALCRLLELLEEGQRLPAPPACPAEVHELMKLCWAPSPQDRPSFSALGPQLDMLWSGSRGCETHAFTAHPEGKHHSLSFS
Method: This assay is a direct measurement of the effect of compound on the catalytic activity of JAK3. Purified human JAK3 (GenBank AF513860) sequence (residue 781-C terminus) was obtained from insect cells. The catalytic hydrolysis of ATP is measured using a radiometric filter binding method. Incubation of kinase with ^33-[P]ATP and substrate leads to incorporation of ^33[P] into the substrate which can then be separated from the other reaction components by filtration. Assays were performed using 10 μM ATP and in the absence or presence of 1, 0.3, or 0.1 μM compound. Activity was expressed as % of inhibition of control.
In the table below, activity in the Jak assays is provided as follows: +++++=IC50<0.0010 μM; ++++=0.0010 μM<IC50<0.010 μM, +++=0.010 μM<IC50<0.10 μM, ++=0.10 μM<IC50<1 μM, +=IC50>1 μM.

Row | SMILES | Sensitivity to Syk inhibition by R406 [1] | Sensitivity to R406 [2] | Induction of apoptosis [3] | IC50 [4] | IC50 [5] | IC50 [6]
1 | COc1cc(Nc2ncc(F)c(Nc3ccc4c(n3)NC(=O)C(C)(C)O4)n2)cc(OC)c1OC [Example R406] | sensitive | insensitive | – | – | – | –
2 | CCCCCCCCCCCCCC(=O)O[C@@H]1[C@@H](C)[C@@]2(O)[C@@H](C=C(CO)C[C@]3(O)C(=O)C(C)=C[C@@H]23)[C@@H]2C(C)(C)[C@]12OC(C)=O [PMA] | – | – | equally sensitive to induction of apoptosis | – | – | –
3 | N#Cc1c[nH]c2nc(Nc3ccc4c(c3)CCC(=O)N4)nc(NC3CC3)c12 [drawing 209] | – | – | – | 10 to 100 nM | 10 to 100 nM | 10 to 100 nM
4 | N#Cc1c[nH]c2nc(Nc3ccc(S(N)(=O)=O)cc3)nc(NC3CC3)c12 [drawing 210] | – | – | – | 10 to 100 nM | 10 to 100 nM | 10 to 100 nM
5 | NC(=O)c1c[nH]c2nc(Nc3ccc4c(c3)CCC(=O)N4)nc(NC3CC3)c12 [drawing 211] | – | – | – | 100 to 1000 nM | > 1000 nM | > 1000 nM
6 | N#CCC(=O)N1CCCC(Nc2nc(Nc3ccc(C(N)=O)cc3)nc3[nH]ccc23)C1 (stereo not drawn) [drawing 212] | – | – | – | 10 to 100 nM | 10 to 100 nM | 10 to 100 nM
